The experiment relates to SJL female mice with induced RR-EAE. The experiment can be described thus: RR-EAE clinical score in SJL mice after systemic treatment. It counts as in vivo. On the procedure: The SJL/EAE mice model was chosen based on its relapsing and remitting (RR) pattern, which resembles the pattern of RR-multiple sclerosis in humans. RR-EAE was induced in SJL female mice (8 weeks old, Harlan Laboratories, Ltd. Israel) by subcutaneous immunization (designated day 0) with proteolipid protein peptide (PLP139-151, BioSight Ltd.) at a concentration of 100 μg/mouse.
In both models the peptides used for EAE induction were emulsified in an equal volume of Complete Freund's Adjuvant (CFA, DIFCO), containing 500 μg Mycobacterium tuberculosis H37RA (MT, DIFCO). In addition, the mice received two consecutive intraperitoneal injections of 300 ng Pertussis toxin (PTX, Sigma-Aldrich) in 0.2 ml PBS. The first injection was given at day 0 and a second injection was given 48 h afterwards.
Day 9 post induction of EAE was chosen for administration of anti-BMP neutralizing antibodies, in order to affect both the onset and the severity of EAE. […], emulsified in 200 μl PBS: anti-human BMP-2/4 (an antibody which recognizes both BMP-2 and BMP-4), anti-human BMP-5, and anti-human BMP-7 mAbs (all anti-BMP neutralizing monoclonal antibodies were obtained from R&D systems). Commercial anti-human BMPs were used based on the high homology (>95%) between human and mouse BMPs. […] Since the blood brain barrier (BBB) is disrupted in the EAE mice by the presence of pertussis toxin, the injected antibodies are present systemically in the blood stream but are also transmitted to the CNS through the disrupted BBB.
Mice treated with corresponding isotype controls (IgG1 and IgG2β, termed herein “IC”) (R&D systems) as well as mice treated with the vehicle PBS alone (termed herein “vehicle”) were used as negative controls (n=12 in each group).
Mice were monitored for symptoms of RR-EAE and were scored as follows: “0” for no disease; “1”, tail paralysis; “2”, hind limb weakness; “3”, hind limb paralysis; “4”, hind limb and forelimb paralysis; “5”, moribund.
[…] Animals were daily monitored for EAE symptoms and scored as described above. […]

The mark [1] stands for this setting: 10 mg/kg i.p. every 12 hr for 5 days from day 9 post immunization.

Structures are written as SMILES.

Data on one compound can be found in patent US9663569B2, “Use of blocking agents of bone morphogenic protein (BMP) signalling for the treatment of neuroinflammatory and neurodegenerative diseases” (THE MEDICAL RESEARCH, INFRASTRUCTURE, AND HEALTH SERVICES …, priority 2012, dated 2017).

`c1cc(-c2cnn3cc(-c4ccc(OCCN5CCCCC5)cc4)cnc23)ccn1` [dorsomorphin, 6-[4-(2-Piperidin-1-yl-ethoxy)phenyl]-3-pyridin-4-yl-pyrazolo[1,5-a]pyrimidine]: under setting [1], the “form of the disease during treatment” value is “very mild form of the disease” and the “onset of the first relapse delayed to day” value was 16 days. In addition, the “mice exhibiting the severe forms of the disease (score 2-5)” value (10 mg/kg i.p., day 9 to day 13, until day 16 post immunization) was “no mice”.
